# Laboratory results: ChEMBL document CHEMBL1240318, “Developing a new resource for drug discovery: marine actinomycete bacteria” (2006)
# Tests used:
# Type in all cases: functional
# Enterococcus faecium = assay: Antimicrobial activity against vancomycin-resistant Enterococcus faecium assessed as growth inhibition
# Candida albicans = assay: Antimicrobial activity against amphotericin-resistant Candida albicans
# Staphylococcus aureus = assay: Antimicrobial activity against methicillin-resistant Staphylococcus aureus assessed as growth inhibition
# SK-MEL-5 = assay: Antitumor activity against human SK-MEL-5 cells; conditions: read-out: LC50 (the source's name)
smiles,measurement,setting,value
C\C1=C/C=C/C=C/C=C/c2cccc(O)c2C(=O)O[C@@H](C[C@@H](C)O)C[C@@H](O)C/C=C/[C@@H](O)C[C@@H](O)CC(C)/C=C/C=C/C=C/C=C/c2cccc(O)c2C(=O)O[C@@H](C[C@@H](C)O)C[C@@H](O)C/C=C/[C@@H](O)C[C@@H](O)C1 (some centres undefined) [MARINOMYCIN A],MIC,Enterococcus faecium,0.1 µM
same,MIC90,Candida albicans,7.8 µM
same,MIC,Staphylococcus aureus,0.1 µM
same,CC50,SK-MEL-5,5 nM
